According to article PMC10216581, “Homogeneous, Synthetic, Non-Saccharide Glycosaminoglycan Mimetics as Potent Inhibitors of Human Cathepsin G” (Biomolecules, 2023):
Where “and” joins values, the source holds several entries; their conditions need not be identical. Equal values may be shown once. Entries after “also recorded” stand apart in the source; their conditions may differ. Marks after values point to notes of the source that are not given here.

Legend:
Human CatG [1] = target: T1, Human CatG (Homo sapiens, UniProt P08311); test: Direct inhibition of CatG, chromogenic substrate (S-7388) hydrolysis assay, IC50 determination; format: biochemical; settings: 100 mM NaCl
T1 construct: purchased Elastin Products Company (Owensville, MO, USA)
T1 sequence (P08311 21-255): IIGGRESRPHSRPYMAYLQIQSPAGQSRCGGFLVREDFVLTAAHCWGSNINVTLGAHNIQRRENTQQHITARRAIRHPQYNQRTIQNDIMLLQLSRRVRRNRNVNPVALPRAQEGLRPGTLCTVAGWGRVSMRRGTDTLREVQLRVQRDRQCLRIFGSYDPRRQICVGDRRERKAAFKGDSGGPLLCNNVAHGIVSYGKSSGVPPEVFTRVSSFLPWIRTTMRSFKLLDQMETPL
Method: A chromogenic substrate hydrolysis assay was used to determine the direct inhibition of CatG by the NSGMs, as previously reported. To each well of a 96-well microplate containing 88 µL of 20 mM tris buffer, containing 100 mM NaCl, 2.5 mM CaCl2, 0.1% PEG 8000, and 0.05% Tween 80, 4 µL of CatG (final concentration of 60 nM) and 5 µL of H2O or NSGM (final concentration of 0–100 µM) were added. After incubating for a period of 5 min, 3 µL of CatG substrate (S-7388, final concentration of 750 µM) was added, and the residual CatG activity was obtained from the initial rate of increase of absorbance at 405 nm. The relative residual activity of CatG for each of the NSGMs, at the various concentrations, was calculated from the ratio of CatG activity in the presence and absence of NSGMs. The dose dependence curve was plotted using a logistic equation (see below) in Sigmaplot version 12 to obtain the IC50 (potency), Hill slope (HS), and efficacy (ΔY). Here, Y is the ratio of residual CatG activity in the presence of NSGMs to that in their absence, YO and YM are the minimum and maximum values of fractional residual CatG activity, respectively, IC50 is the concentration of the NSGM that inhibits CatG activity by 50%, and HS is the Hill slope. ΔY = YM − YO. Y=YO+YM−YO/1+10^logI0−logIC50HS
Figure 4 Representative IC50 profiles for CatG inhibition by NSGMs. Direct inhibition of human CatG was measured using the chromogenic substrate hydrolysis assay at pH 7.4 and 37 °C. Solid lines represent analysis using the logistic dose–response relationship (Equation (1)) to obtain the IC50, ΔY%, and HS. Errors represent ± 1 S.E.

human plasma = test: Prothrombin time (PT) clotting assay; format: biochemical
Method: The impacts of NSGM 25 on activated partial thromboplastin time (aPTT) and the prothrombin time (PT) of human plasma were measured employing a standard one-stage recalcification assay at 37 °C, as previously reported. CaCl2 and thromboplastin-D were used to initiate clotting in aPTT and PT assays, respectively, in the absence and presence of NSGM 25, and the time to clot was recorded accordingly.

Human CatG [2] = target: T1, Human CatG; test: Salt dependence of CatG inhibition by NSGM 25 (ionic/nonionic binding energy); format: biochemical
Method: Each KI value was calculated from the corresponding IC50 using the Cheng–Prusoff equation [43]. A double-log plot of the KI against Na^+ concentration was prepared and analyzed using the equation log KI=log KI,NONIONIC+ZψlogNa^+ . Here, the slope corresponds to the number of ion-pair interactions (Z) and the counterions released per negative charge upon ion binding (ψ = 0.8), while the intercept corresponds to the nonionic affinity (KI,NONIONIC). The contributions of ionic and nonionic binding energies to the interactions were obtained from the slope and intercept of the plot in Excel.
A fundamental point being advanced in NSGM-based mimicry is the presumed increase in hydrophobic forces contributing to binding affinity. As is well-recognized, heparin and other GAGs utilize primarily electrostatic forces in binding to proteins. […] The resolution of overall binding energy into ionic and nonionic contributions is typically achieved by performing affinity measurements as a function of the ionic strength of the buffer. According to the protein–polyelectrolyte theory, the two contributions can be resolved from a double-log plot of binding affinity against the Na^+ concentration, as defined by the equation log KI = log KI,NONIONIC + Zψ × log [Na^+], where Z represents the number of salt interactions, and ψ is the proportion of Na^+ released per anion upon ligand binding and is equal to 0.8 for heparin [55].
Figure 6 Salt dependence of CatG inhibition by NSGM 25. (A) Salt-dependent direct inhibition of CatG by NSGM 25. Data were obtained using substrate S-7388 in a chromogenic substrate hydrolysis assay. Solid lines represent sigmoidal dose–response analysis (Equation (1)) of the data to obtain IC50, ΔY%, and HS. Errors represent ± 1 S.E. (B) A double-log plot of the KI calculated using Cheng–Rusoff equation for uncompetitive inhibition against the concentration of salt.
The measured IC50s of our allosteric inhibitors are distinct from inhibition constants KI, which are thermodynamic constants. Cheng and Prusoff provided a mathematical foundation for the transformation of IC50s into KIs for uncompetitive inhibitors. In their formulation, KI is equal to IC50 × [S]/(KM + [S]), which is directly applicable to our study. Thus, it becomes possible to utilize the linear double-log analysis described above for our NSGM 25, which is an uncompetitive inhibitor. […] Linear regression yielded a slope of 2.94 and an intercept of −4.32 (Table 5). Whereas the former corresponds to an ionic binding energy of […] at 37 °C and 100 mM salt, the latter yields a nonionic binding energy of 6.12 kcal/mol. […] Such important roles of two forces have not been observed earlier. More importantly, the higher nonionic component bodes well for the discovery of second-generation inhibitors with higher selectivity.

factor Xa = system: factor Xa; design: method as in PMID 9790687; settings: previous study; read-out: inhibitory potency; cited from earlier work
factor XIIa = system: factor XIIa; design: method as in PMID 9790687; settings: previous study; read-out: inhibitory potency; cited from earlier work
factor IXa = system: factor IXa; design: method as in PMID 9790687; settings: previous study; read-out: inhibitory potency; cited from earlier work
[3] = linear regression of log KI versus log[Na+]

IC50 (Human CatG [1]; pH 7.4, read-out: IC50 (potency)): ~50 nM and 53 nM
HS (Hill slope) (Human CatG [1]; Hill slope of dose-response fit, pH 7.4): 0.7 ± 0.1
IC50 (Human CatG [1]; pH 7.4 tris buffer, 37 °C, 60 nM CatG, 750 µM S-7388, ± 1 S.E., read-out: IC50): 50 ± 10 nM
ΔY (efficacy) (Human CatG [1]; ΔY = YM − YO of dose-response fit, pH 7.4): 95 ± 7%
HS (Human CatG [2]; 50 mM NaCl): 1.3 ± 0.4
IC50 (Human CatG [2]; 50 mM NaCl): 43 ± 10 nM
ΔY (Human CatG [2]; 50 mM NaCl): 87.7 ± 7.3 ^b %
IC50 (Human CatG [2]; 50 mM NaCl, pH 7.4, 37 °C): 42.7 ± 10 nM
Ki (Human CatG [2]; 50 mM NaCl, calculated from IC50 with Cheng-Prusoff equation (uncompetitive)): 10.9 ± 3.9 nM
HS (Human CatG [2]; 100 mM NaCl): 0.7 ± 0.1
IC50 (Human CatG [2]; 100 mM NaCl, pH 7.4, 37 °C): 52.6 ± 12.2 nM
Ki (Human CatG [2]; 100 mM NaCl, calculated from IC50 with Cheng-Prusoff equation): 19.2 ± 5.3 nM
HS (Human CatG [2]; 150 mM NaCl): 1.6 ± 0.3
ΔY (Human CatG [2]; 150 mM NaCl): 74.4 ± 2.9%
IC50 (Human CatG [2]; 150 mM NaCl, pH 7.4, 37 °C): 319 ± 44.5 nM
Ki (Human CatG [2]; 150 mM NaCl, calculated from IC50 with Cheng-Prusoff equation): 148 ± 54 nM
HS (Human CatG [2]; 200 mM NaCl): 2.0 ± 0.5
ΔY (Human CatG [2]; 200 mM NaCl): 73.2 ± 4.9%
IC50 (Human CatG [2]; 200 mM NaCl, pH 7.4, 37 °C): 3450 ± 517 nM
Ki (Human CatG [2]; 200 mM NaCl, calculated from IC50 with Cheng-Prusoff equation): 1670 ± 480 nM
ionic binding energy (Human CatG [2]; 37 °C and 100 mM salt): 4.88 kcal/mol
loss in inhibition potency (Human CatG [2]; NaCl increased from 50 mM to 200 mM): ~ 80 fold
ΔGNON-IONIC (nonionic binding energy) (Human CatG [2]; from intercept of double-log plot): 6.12 kcal/mol
Intercept (Human CatG [2]; [3]): −4.32
Slope (Human CatG [2]; [3]): 2.94
ΔGIONIC (Human CatG [2]; share of binding energy): 44.4%
ΔGNON-IONIC (Human CatG [2]; share of binding energy): 55.6%
Compound: O=c1c(OS(=O)(=O)O)c(-c2ccc(OS(=O)(=O)O)c(OS(=O)(=O)O)c2)oc2cc(OS(=O)(=O)O)cc(OCc3ccc(COc4cc(OS(=O)(=O)O)cc5oc(-c6ccc(OS(=O)(=O)O)c(OS(=O)(=O)O)c6)c(OS(=O)(=O)O)c(=O)c45)cc3)c12 [NSGM 25]
PT (EC2X) (human plasma; concentration required to double the PT of pooled human plasma): >1000 µM
effect on PT clotting time (human plasma; human plasma, concentration as high as 1 mM): did not impact; also recorded: did not extend
IC50 (factor Xa): > 150000 nM
IC50 (factor XIIa): > 150000 nM
IC50 (factor IXa): > 150000 nM
